Experimental data published in patent US12059473B2, “Humanized anti-prostate -specific membrane antigen (PSMA) antibody drug conjugates” (Ambrx, Inc., priority 2018, dated 2024).

Columns and labels:
[1] = tested on: C4-2 human carcinoma xenografts; patient derived xenograft (PDX) TM00298 prostate tumors; assay: Repeat dose and enzalutamide combination efficacy in prostate tumor models; assay type: in vivo, mice; conditions: enzalutamide as a single agent; prostate cancer cells
Experimental: Anti-tumor efficacy of the anti-PSMA ADCs of the invention in combination with hormone therapy enzalutamide was tested in tumor xenograft model in mice engrafted with prostate cancer cell line. Metastatic castration resistant prostate cancer (mCRPC) relevant cell line, C4-2, was obtained from ATCC and expanded in vitro following ATCC instructions. C4-2 human carcinoma xenografts were grown in male immune-compromised mice with cells implanted subcutaneously. A second model using male immunocompromised mice bearing patient derived xenograft (PDX) TM00298 (Jackson Laboratories, CA) prostate tumors was also studied.
Mice were weighed and measured for tumor volume using an electronic caliper. Individual tumor volume was calculated as length×width×width/2. Mice with vascularized tumors (determined by appearance) averaging a volume of 500 mm^3 were randomized into treatment groups and were dosed intravenously per individual body weight. Anti-PSMA ADCs were administered intravenously at 0.5, 1, and 3 mg/kg weekly for 4 weeks in the C4-2 model and at 1 and 3 mg/kg weekly for 4 weeks in the PDX model. In both prostate models, enzalutamide was administered orally daily at 10 mg/kg, for 28 days. In both prostate models, one group of mice were administered a combination therapy of 1 mg/kg anti-PSMA ADC plus 10 mg/kg enzalutamide, FIGS. 7 and 8. […]

[2] = tested on: cell surface PSMA expression; conditions: in vitro; Murga et al. 2015; cited from earlier work

## CNC(=O)c1ccc(N2C(=S)N(c3ccc(C#N)c(C(F)(F)F)c3)C(=O)C2(C)C)cc1F [enzalutamide]
[1]
  level of cell surface PSMA: increased the level of cell surface PSMA in prostate cancer cells
[2]
  increase of cell surface PSMA expression: approximately 3 fold
